According to paper PMC5306062, “Pharmacology and toxicology of the novel investigational agent Cantrixil (TRX-E-002-1)” (Cancer Chemotherapy and Pharmacology, 2016):

How the values were obtained:
[1] = test system: chemo-resistant CD44+/MyD88+ OCSC clones; experiment: Cell death in ovarian cancer stem cell clones; type: cell-based, human; conditions: grown separately or in co-cultures
Description: Tumour recurrence post-chemotherapy is caused by the regrowth of the surviving innately drug-resistant cancer stem cells that remain in tumour niches during and post-chemotherapy. The expansion of this chemo-resistant cancer cell population, coupled with upregulation of pro-survival pathways due to drug pressure, is thought to be responsible for the development of chemo-resistant recurrent disease. Further, the inherent heterogeneity of ovarian tumours consists of epithelial cells with varying potential for stemness, and a population of cancer cells with varying mesenchymal status and invasiveness potential. Therefore, to improve survival, a practical approach is the use of novel therapies that can induce cell death in these various subtypes of ovarian cancer cells. TRX-E-002-1 was assessed against ovarian cancer stem cell line OCSC2, characterised by their expression of stem cell markers including CD44 and […] [22]. A major characteristic of these cells is that they are drug resistant, able to form self-renewing spheroids in non-adherent culture, and recreate disseminated drug-resistant ovarian tumours that have a high degree of heterogeneity similar to the clinical profile observed in patients when inoculated into the peritoneal cavity of an immune-compromised mouse.

[2] = GLP telemetry cardiovascular study, intraperitoneal injection; type: in vivo, beagle dogs
Description: (§1) However, at concentrations of 0.1-10 μM, the drug increased surface expression of the hERG single mutant (hERG-SM), identifying it as a potential blocker of hERG channel activity. […] Potential cardiovascular responses to intraperitoneal injection of TRX-E-002-1 were investigated in a GLP-compliant telemetry study in beagle dogs. Four male dogs received vehicle (20% SBECD) or TRX-E-002-1 (1, 10 or 30 mg/kg) on four separate occasions in a Latin Square design. Blood pressure, heart rate, ECG parameters and body temperatures were continuously recorded from 30 min before dosing until at least 24 h after each dose.

[3] = Dog 14-day pilot toxicity study with toxicokinetics, intraperitoneal; conditions: both, beagle, dog, plasma
Description: For the dog 14-day pilot study, male and female beagle dogs were dosed once daily with intraperitoneal injections of vehicle (1:2 dilutions of 20% SBECD in 0.9% saline) or Cantrixil (10, 30 or 100 mg/kg) for 14 days. The doses were administered via an implanted catheter.

[4] = Excretion study in rats, single intraperitoneal injection; type: in vivo, female Sprague–Dawley rats; conditions: 100 mg/kg i.p.
Description: Excretion of TRX-E-002-1 was investigated in female Sprague–Dawley rats that received a single intraperitoneal injection of TRX-E-002-1 100 mg/kg in 20% SBECD. High levels of parent drug were measured in urine up to 24 h after dosing and in faeces up to 48 h after dosing. The glucuronide conjugate, measured as the increase in TRX-E-002-1 following treatment of the samples with beta-glucuronidase, was found at levels similar to those of parent drug in faeces (rectal contents) up to 2 h after dosing, but was barely detectable in urine. Total amounts of parent drug and glucuronide excreted in faeces and urine were not calculated, so that the relative contributions of renal and biliary excretion pathways cannot be evaluated.

[5] = test system: hERG single mutant (hERG-SM); experiment: Surface expression of hERG single mutant; type: cell-based, human; conditions: 0.1-10 μM
Description: as §1

[6] = test system: OCSC2 ovarian cancer stem cells; experiment: Western blots of caspase 2 and signalling molecules in OCSC2 cells; type: cell-based, human; conditions: Western blot
Description: The role of caspases and intracellular signalling pathways in the anticancer activity of TRX-E-002-1 was investigated in OCSC2 ovarian cancer stem cells. […] TRX-E-002-1 also modulated phosphorylation of intracellular signalling molecules, with decreased levels of pERK (phosphorylated extracellular signal-regulated kinase) and increased levels of phosphorylated c-Jun (p–c-Jun). Activated p–c-Jun levels increased progressively over the 24-h incubation period in response to both concentrations of TRX-E-002-1 tested. […] Increased p–c-Jun and decreased pERK levels were observed following incubation of OCSC2 cells after only 2-h’ exposure, indicating these changes are one of the earliest effects of TRX-E-002-1 treatment.

hERG current = target: T1, hERG current (Homo sapiens, UniProt Q12809); experiment: Patch-clamp electrophysiological assay in hERG-transfected mammalian cells; type: cell-based; conditions: read-out: IC50 for inhibition of hERG current
T1 construct: expressed in transfected cells

[7] = test system: recurrent ovarian cancer model; experiment: Recurrent ovarian cancer model after paclitaxel (OCSC2-inoculated mice); type: in vivo
Description: In vivo, TRX-E-002-1, formulated in 20% SBECD, was active in a disseminated ovarian cancer model and a recurrent ovarian cancer model in which tumour recurrence is investigated following initial treatment of the OCSC2-inoculated mice with paclitaxel. In both models, TRX-E-002-1 inhibited tumour growth following once daily intraperitoneal administration.
In the recurrent ovarian cancer model, once daily intraperitoneal administration of 100 mg/kg TRX-E-002-1 in 20% SBECD for 4 weeks inhibited tumour growth and reduced terminal tumour burden by 77%.

[8] = 100 mg/kg i.p. once daily in 20% SBECD for 4 weeks

T1 sequence (Q12809 whole entry): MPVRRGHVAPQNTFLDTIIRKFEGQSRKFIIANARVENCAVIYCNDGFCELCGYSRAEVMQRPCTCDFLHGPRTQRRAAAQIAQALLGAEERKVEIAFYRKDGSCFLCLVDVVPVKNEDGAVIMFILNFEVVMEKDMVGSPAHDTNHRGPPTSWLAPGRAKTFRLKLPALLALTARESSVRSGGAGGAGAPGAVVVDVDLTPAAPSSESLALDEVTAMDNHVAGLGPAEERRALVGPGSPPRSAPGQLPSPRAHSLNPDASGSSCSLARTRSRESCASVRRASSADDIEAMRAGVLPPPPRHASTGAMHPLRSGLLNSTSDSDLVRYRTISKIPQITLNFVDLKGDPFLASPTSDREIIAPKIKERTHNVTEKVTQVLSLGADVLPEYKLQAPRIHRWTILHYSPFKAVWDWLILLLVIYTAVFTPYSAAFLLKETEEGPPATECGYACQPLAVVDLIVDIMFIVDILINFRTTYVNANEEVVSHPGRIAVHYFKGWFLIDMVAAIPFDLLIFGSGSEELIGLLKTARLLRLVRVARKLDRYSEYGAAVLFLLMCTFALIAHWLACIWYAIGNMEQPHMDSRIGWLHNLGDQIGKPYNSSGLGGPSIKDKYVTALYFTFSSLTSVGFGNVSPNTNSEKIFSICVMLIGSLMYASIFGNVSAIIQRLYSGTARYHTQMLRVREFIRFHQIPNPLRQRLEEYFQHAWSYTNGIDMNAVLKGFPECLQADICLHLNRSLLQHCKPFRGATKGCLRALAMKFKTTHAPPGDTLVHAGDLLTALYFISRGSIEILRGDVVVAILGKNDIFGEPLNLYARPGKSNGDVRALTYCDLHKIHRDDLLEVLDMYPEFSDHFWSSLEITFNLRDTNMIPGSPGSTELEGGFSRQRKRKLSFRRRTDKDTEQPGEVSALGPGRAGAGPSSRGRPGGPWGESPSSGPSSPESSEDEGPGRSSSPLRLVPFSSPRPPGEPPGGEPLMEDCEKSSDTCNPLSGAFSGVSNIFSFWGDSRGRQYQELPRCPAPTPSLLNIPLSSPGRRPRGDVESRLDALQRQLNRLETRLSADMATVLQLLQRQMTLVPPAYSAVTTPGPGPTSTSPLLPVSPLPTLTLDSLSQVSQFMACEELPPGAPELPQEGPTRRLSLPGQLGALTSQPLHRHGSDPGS

In the case of `COc1cc([C@@H]2COc3c(ccc(O)c3C)[C@@H]2c2ccc(O)cc2)cc(OC)c1O` [TRX-E-002-1, (+) cis-4-(para-hydroxyphenyl)-7,4′-dihydroxy-3′,5′-dimethoxy-8-methylisoflavan], the “induction of cell death” value [1] is reported as “able to induce cell death”, the “effect on QTc interval” value ([2]; 1, 10 or 30 mg/kg i.p., ECG telemetry) is reported as “no effect” and the “blood pressure and heart rate” value ([2]; 10 and/or 30 mg/kg i.p., not considered adverse) is reported as “slight, transient increases”. For the same compound, the half-life ([3]; intraperitoneal) was 2 to 2.7 h, the Tmax ([3]; ip, 100 mg/kg) was 0.5 to 2 h and the “parent drug in urine” value ([4]; up to 24 h after dosing) was “High levels”. For the same compound, the “parent drug in faeces” value ([4]; up to 48 h after dosing) was “High levels”, the “surface expression of hERG-SM” value [5] was “increased” and the “levels of inactive caspase 2” value ([6]; both concentrations) was “decreased”. The “levels of phosphorylated c-Jun (p–c-Jun)” value ([6]; progressive over 24 h) was “increased”, the “levels of pERK” value ([6]; seen after 2 h exposure) was “decreased” and the IC50 (hERG current) was 17 µM. For the same compound, the “reduction of terminal tumour burden” value [7, 8] was 77%, the tumour growth [7, 8] was “inhibited” and the “efficacy compared with paclitaxel” value ([7]; paclitaxel 12 mg/kg twice weekly) was “more effective”.
